Results on 31 molecules are retold here after US8178668B2, “2-aminopyridine kinase inhibitors” (OSI Pharmaceuticals, LLC, priority 2008, dated 2012).

By IC50 is commonly meant the concentration that gives 50% inhibition. Low values mean inhibition by little substance, high ones a need for much substance.

The target of one assay is MET (human) (Homo sapiens, UniProt P08581). In words: MET kinase AlphaScreen assay (Km of ATP). In kind it is biochemical. The conditions noted are these: ATP at Km; at least duplicate experiments. A digest of the protocol: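 Biotinylated poly(Glu,Tyr) (200 ng/μL) phosphorylated by MET with ATP at an enzyme-optimized level, in 50 mM HEPES pH 7.4 with Mg2+/Mn2+ and vanadate, 1% DMSO. Reaction runs 60 min at RT. PT66 AlphaScreen donor/acceptor beads are added and signal is read after 1 h.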

For a further assay, the target named is RON (human) (Homo sapiens, UniProt Q04912). In words: RON kinase AlphaScreen assay (Km of ATP). Conditions: ATP at Km; at least duplicate experiments. In kind it is biochemical. A digest of the protocol:
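Human RON phosphorylated biotinylated poly(Glu,Tyr) (200 ng/μL) at Km ATP in 50 mM HEPES pH 7.4, 12.5 mM MgCl2, 1% glycerol, 0.334 mM vanadate, 1% DMSO. Reaction ran 30 min at RT after enzyme addition. Product was detected by AlphaScreen with PT66 beads after 1 h.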
(Bead proximity is the source of the signal in Alpha formats.)

Structures can show the parent of a compound that is named as a salt.

RON (human), sequence (Q04912 25-1400): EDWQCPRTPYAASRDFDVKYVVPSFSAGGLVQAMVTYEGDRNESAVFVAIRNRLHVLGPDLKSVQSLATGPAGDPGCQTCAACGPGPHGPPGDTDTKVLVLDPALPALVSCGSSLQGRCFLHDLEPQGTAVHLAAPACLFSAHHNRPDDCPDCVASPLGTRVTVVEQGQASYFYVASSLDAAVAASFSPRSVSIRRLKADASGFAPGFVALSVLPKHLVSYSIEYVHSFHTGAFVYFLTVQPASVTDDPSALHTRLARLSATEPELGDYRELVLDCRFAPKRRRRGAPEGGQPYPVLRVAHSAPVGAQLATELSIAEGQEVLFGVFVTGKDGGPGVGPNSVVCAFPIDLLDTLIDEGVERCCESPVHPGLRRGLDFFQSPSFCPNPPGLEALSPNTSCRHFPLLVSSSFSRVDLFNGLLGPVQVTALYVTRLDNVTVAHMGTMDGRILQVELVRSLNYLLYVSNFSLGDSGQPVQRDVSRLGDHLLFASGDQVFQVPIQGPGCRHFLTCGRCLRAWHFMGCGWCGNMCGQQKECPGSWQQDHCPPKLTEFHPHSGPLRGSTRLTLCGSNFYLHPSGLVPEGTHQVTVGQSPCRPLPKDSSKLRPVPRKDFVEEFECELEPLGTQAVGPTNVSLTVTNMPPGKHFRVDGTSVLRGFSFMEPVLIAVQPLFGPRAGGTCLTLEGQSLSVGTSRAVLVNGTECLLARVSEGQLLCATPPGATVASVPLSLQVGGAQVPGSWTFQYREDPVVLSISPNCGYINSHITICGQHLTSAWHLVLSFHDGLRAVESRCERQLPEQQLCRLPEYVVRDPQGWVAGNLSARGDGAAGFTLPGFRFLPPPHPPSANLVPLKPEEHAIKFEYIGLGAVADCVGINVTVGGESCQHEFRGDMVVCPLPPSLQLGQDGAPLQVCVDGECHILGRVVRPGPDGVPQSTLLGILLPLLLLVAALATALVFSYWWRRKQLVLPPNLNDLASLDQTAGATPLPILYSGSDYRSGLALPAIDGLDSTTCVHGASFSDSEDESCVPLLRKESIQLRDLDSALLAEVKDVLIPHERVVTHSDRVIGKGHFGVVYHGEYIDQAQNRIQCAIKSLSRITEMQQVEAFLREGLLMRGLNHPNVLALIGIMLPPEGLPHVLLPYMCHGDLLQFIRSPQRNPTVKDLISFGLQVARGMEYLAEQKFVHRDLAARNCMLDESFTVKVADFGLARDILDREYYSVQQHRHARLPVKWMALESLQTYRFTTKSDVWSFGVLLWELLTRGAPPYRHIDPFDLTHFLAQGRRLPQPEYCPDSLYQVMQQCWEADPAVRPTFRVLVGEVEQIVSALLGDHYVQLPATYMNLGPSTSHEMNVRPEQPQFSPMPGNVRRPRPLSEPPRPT
MET (human), sequence (P08581 25-1390): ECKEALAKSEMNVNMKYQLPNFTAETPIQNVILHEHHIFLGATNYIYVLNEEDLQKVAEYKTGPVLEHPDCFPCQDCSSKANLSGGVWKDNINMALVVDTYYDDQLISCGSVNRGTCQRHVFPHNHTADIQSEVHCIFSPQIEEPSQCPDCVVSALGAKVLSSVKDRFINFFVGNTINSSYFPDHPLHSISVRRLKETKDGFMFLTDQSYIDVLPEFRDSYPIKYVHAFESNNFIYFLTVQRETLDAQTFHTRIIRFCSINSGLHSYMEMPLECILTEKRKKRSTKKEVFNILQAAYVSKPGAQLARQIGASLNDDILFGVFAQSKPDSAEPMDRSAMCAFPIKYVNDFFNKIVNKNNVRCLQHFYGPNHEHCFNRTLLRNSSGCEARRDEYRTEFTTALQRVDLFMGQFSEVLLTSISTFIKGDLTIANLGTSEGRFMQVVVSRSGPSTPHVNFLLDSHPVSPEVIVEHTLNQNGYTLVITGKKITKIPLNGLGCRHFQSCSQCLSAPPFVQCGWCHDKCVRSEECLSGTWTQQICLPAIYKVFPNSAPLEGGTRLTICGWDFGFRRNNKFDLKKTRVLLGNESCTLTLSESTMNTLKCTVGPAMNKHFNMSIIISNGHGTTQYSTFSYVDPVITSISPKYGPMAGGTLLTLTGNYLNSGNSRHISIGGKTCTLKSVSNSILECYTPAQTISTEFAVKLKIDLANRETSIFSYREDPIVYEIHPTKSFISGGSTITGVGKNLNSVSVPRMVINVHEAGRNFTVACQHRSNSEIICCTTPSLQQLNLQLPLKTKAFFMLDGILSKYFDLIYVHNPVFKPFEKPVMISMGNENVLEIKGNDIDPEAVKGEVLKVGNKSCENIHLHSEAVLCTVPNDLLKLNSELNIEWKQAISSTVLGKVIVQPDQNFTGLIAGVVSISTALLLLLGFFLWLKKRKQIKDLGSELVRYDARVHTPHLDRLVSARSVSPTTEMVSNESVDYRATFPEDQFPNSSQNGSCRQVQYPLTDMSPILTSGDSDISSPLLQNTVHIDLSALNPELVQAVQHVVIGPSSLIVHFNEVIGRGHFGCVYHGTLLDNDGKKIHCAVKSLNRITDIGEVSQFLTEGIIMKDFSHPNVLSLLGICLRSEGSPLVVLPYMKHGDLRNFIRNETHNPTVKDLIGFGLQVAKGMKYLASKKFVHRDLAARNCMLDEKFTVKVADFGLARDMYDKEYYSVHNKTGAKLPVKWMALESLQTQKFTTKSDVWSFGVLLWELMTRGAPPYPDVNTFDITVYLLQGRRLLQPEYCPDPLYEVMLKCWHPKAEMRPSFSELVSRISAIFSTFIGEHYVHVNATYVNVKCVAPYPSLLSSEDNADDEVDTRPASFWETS

For the molecule `Nc1ncc(-c2ccc(OCC(=O)N3CCOCC3)cc2)cc1-c1nc2ccccc2s1` [Example 244, 2-[4-(6-Amino-5-benzothiazol-2-ylpyridin-3-yl)phenoxy]-1-morpholin-4-ylethanone], the values for the IC50 against MET (human) and against RON (human) were 1000 to 20000 nM and more than 20000 nM, respectively.
In the same order, the values of `Nc1ncc(-c2ccc(OCC(=O)NCC3CCCCC3)cc2)cc1-c1nc2ccccc2s1` [Example 245, 2-[4-(6-Amino-5-benzothiazol-2-ylpyridin-3-yl)phenoxy]-N-cyclohexylmethylacetamide] are 1000 to 20000 nM and more than 20000 nM.
For `Nc1ncc(-c2ccc(OCC(=O)N3CCN(CCO)CC3)cc2)cc1-c1nc2ccccc2s1` [Example 246, 2-[4-(6-Amino-5-benzothiazol-2-yl-pyridin-3-yl)phenoxy]-1-[4-(2-hydroxyethyl)piperazin-1-yl]ethanone], the figures for the IC50 against MET (human) and against RON (human) were 100 to 1000 nM and 1000 to 20000 nM, respectively.
For `Nc1ncc(-c2cnn(C3CCNCC3)c2)cc1-c1nc2cccc(-c3cn[nH]c3)c2s1` [Example 247, 5-(1-Piperidin-4-yl-1H-pyrazol-4-yl)-3-[7-(1H-pyrazol-4-yl)benzothiazol-2-yl]pyridin-2-ylamine dihydrochloride] the same measures were not above 100 nM and 100 to 1000 nM.
`Cn1cc(-c2cccc3nc(-c4cc(-c5cnn(C6CCNCC6)c5)cnc4N)sc23)cn1` [Example 248, 3-[7-(1-Methyl-1H-pyrazol-4-yl)benzothiazol-2-yl]-5-(1-piperidin-4-yl-1H-pyrazol-4-yl)pyridin-2-ylamine dihydrochloride]: the concentration for half-maximal inhibition (IC50) against MET (human) and against RON (human) was 100 to 1000 nM each time.
For `Nc1ncc(-c2cnn(C3CCNCC3)c2)cc1-c1nc2cccc(-c3ccc[nH]3)c2s1` [Example 249, 5-(1-Piperidin-4-yl-1H-pyrazol-4-yl)-3-[7-(1H-pyrrol-2-yl)benzothiazol-2-yl]pyridin-2-ylamine dihydrochloride], the 50% inhibitory concentration (IC50) is not above 100 nM at MET (human) and 100 to 1000 nM at RON (human).
For `Nc1ncc(-c2cnn(C3CCNCC3)c2)cc1-c1nc2cccc(-c3cccnc3)c2s1` [Example 250, 5-(1-Piperidin-4-yl-1H-pyrazol-4-yl)-3-(7-pyridin-3-ylbenzothiazol-2-yl)pyridin-2-ylamine dihydrochloride] the same measures were not above 100 nM and 100 to 1000 nM.
For `Nc1ncc(-c2cnn(C3CCNCC3)c2)cc1-c1nc2cccc(-c3cc[nH]c3)c2s1` [Example 251, 5-(1-Piperidin-4-yl-1H-pyrazol-4-yl)-3-[7-(1H-pyrrol-3-yl)benzothiazol-2-yl]pyridin-2-ylamine trifluoroacetate] the same measures were 100 to 1000 nM and 100 to 1000 nM.
For the molecule `Nc1ncc(-c2cnn(C3CCNCC3)c2)cc1-c1nc2ccc(F)cc2s1` [Example 252, 3-(6-Fluorobenzothiazol-2-yl)-5-(1-piperidin-4-yl-1H-pyrazol-4-yl)-pyridin-2-ylamine], the IC50 on MET (human) and at RON (human) was 100 to 1000 nM throughout.
As for `Nc1ncc(-c2cnn(C3CCNCC3)c2)cc1-c1nc2ccc(Cl)cc2s1` [Example 253, 3-(6-Chlorobenzothiazol-2-yl)-5-(1-piperidin-4-yl-1H-pyrazol-4-yl)-pyridin-2-ylamine], the IC50 at MET (human) and against RON (human) was 100 to 1000 nM each time.
With `Cc1ccc2nc(-c3cc(-c4cnn(C5CCNCC5)c4)cnc3N)sc2c1` [Example 254, 3-(6-Methylbenzothiazol-2-yl)-5-(1-piperidin-4-yl-1H-pyrazol-4-yl)-pyridin-2-ylamine], the IC50 at MET (human) and at RON (human) was 100 to 1000 nM throughout.
As for `COc1ccc2nc(-c3cc(-c4cnn(C5CCNCC5)c4)cnc3N)sc2c1` [Example 255, 3-(6-Methoxybenzothiazol-2-yl)-5-(1-piperidin-4-yl-1H-pyrazol-4-yl)-pyridin-2-ylamine], the IC50 against MET (human) and at RON (human) was 100 to 1000 nM in each case.
On to `Nc1ncc(-c2cnn(C3CCNCC3)c2)cc1-c1nc2c(F)cccc2s1` [Example 256, 3-(4-Fluorobenzothiazol-2-yl)-5-(1-piperidin-4-yl-1H-pyrazol-4-yl)-pyridin-2-ylamine], for which the IC50 was not above 100 nM on MET (human) and 100 to 1000 nM on RON (human).
For `Cc1cccc2sc(-c3cc(-c4cnn(C5CCNCC5)c4)cnc3N)nc12` [Example 257, 3-(4-Methylbenzothiazol-2-yl)-5-(1-piperidin-4-yl-1H-pyrazol-4-yl)-pyridin-2-ylamine] the same measures were 100 to 1000 nM and 100 to 1000 nM.
In the same order, the values of `Nc1ncc(-c2cnn(C3CCNCC3)c2)cc1-c1nc2cc(Cl)ccc2s1` [Example 258, 3-(5-Chlorobenzothiazol-2-yl)-5-(1-piperidin-4-yl-1H-pyrazol-4-yl)-pyridin-2-ylamine] are not above 100 nM and 100 to 1000 nM.
For `Nc1ncc(-c2cnn(C3CCNCC3)c2)cc1-c1nc2cccc(Cl)c2s1` [Example 259, 3-(7-Chlorobenzothiazol-2-yl)-5-(1-piperidin-4-yl-1H-pyrazol-4-yl)-pyridin-2-ylamine] the same measures were not above 100 nM and not above 100 nM.
As to `Nc1ncc(-c2cnn(C3CCNCC3)c2)cc1-c1nc2cccc(C(F)(F)F)c2s1` [Example 260, 5-(1-Piperidin-4-yl-1H-pyrazol-4-yl)-3-(7-trifluoromethylbenzothiazol-2-yl)-pyridin-2-ylamine], the IC50 against MET (human) and against RON (human) was 100 to 1000 nM throughout.
For the molecule `Nc1ncc(-c2cnn(C3CCNCC3)c2)cc1-c1nc2cc(C(F)(F)F)ccc2s1` [Example 261, 5-(1-Piperidin-4-yl-1H-pyrazol-4-yl)-3-(5-trifluoromethylbenzothiazol-2-yl)-pyridin-2-ylamine], the IC50 against MET (human) and against RON (human) was 100 to 1000 nM each time.
In the case of `Nc1ncc(-c2cnn(C3CCNCC3)c2)cc1-c1nc2c(C(F)(F)F)cccc2s1` [Example 262, 5-(1-Piperidin-4-yl-1H-pyrazol-4-yl)-3-(4-trifluoromethylbenzothiazol-2-yl)-pyridin-2-ylamine], the IC50 against MET (human) and against RON (human) was 100 to 1000 nM each time.
For `Cc1cccc2nc(-c3cc(-c4cnn(C5CCNCC5)c4)cnc3N)sc12` [Example 263, 3-(7-Methylbenzothiazol-2-yl)-5-(1-piperidin-4-yl-1H-pyrazol-4-yl)-pyridin-2-ylamine], the IC50 at MET (human) and against RON (human) was not above 100 nM throughout.
Take `COc1cccc2nc(-c3cc(-c4cnn(C5CCNCC5)c4)cnc3N)sc12` [Example 264, 3-(7-Methoxybenzothiazol-2-yl)-5-(1-piperidin-4-yl-1H-pyrazol-4-yl)-pyridin-2-ylamine]: the concentration for half-maximal inhibition (IC50) at MET (human) was not above 100 nM; against RON (human), 100 to 1000 nM.
In the same order, the values of `Nc1ncc(-c2cnn(C3CCNCC3)c2)cc1-c1nc2c(Br)cccc2s1` [Example 265, 3-(4-Bromobenzothiazol-2-yl)-5-(1-piperidin-4-yl-1H-pyrazol-4-yl)-pyridin-2-ylamine] are not above 100 nM and 100 to 1000 nM.
On to `Nc1ncc(-c2cnn(C3CCNCC3)c2)cc1-c1nc2ccc(OC(F)(F)F)cc2s1` [Example 266, 5-(1-Piperidin-4-yl-1H-pyrazol-4-yl)-3-(6-trifluoromethoxybenzothiazol-2-yl)-pyridin-2-ylamine], for which the IC50 on MET (human) and against RON (human) was 1000 to 20000 nM in each case.
On to `N#Cc1ccc2sc(-c3cc(-c4cnn(C5CCNCC5)c4)cnc3N)nc2c1` [Example 267, 2-[2-Amino-5-(1-piperidin-4-yl-1H-pyrazol-4-yl)-pyridin-3-yl]-benzothiazole-5-carbonitrile], for which the IC50 against MET (human) and on RON (human) was not above 100 nM each time.
For the molecule `N#Cc1ccc2nc(-c3cc(-c4cnn(C5CCNCC5)c4)cnc3N)sc2c1` [Example 268, 2-[2-Amino-5-(1-piperidin-4-yl-1H-pyrazol-4-yl)-pyridin-3-yl]-benzothiazole-6-carbonitrile], the IC50 against MET (human) and at RON (human) was 100 to 1000 nM each time.
As for `Nc1ncc(-c2cnn(C3CCNCC3)c2)cc1-c1nc2c(C(F)(F)F)ccc(F)c2s1` [Example 269, 3-(7-Fluoro-4-trifluoromethylbenzothiazol-2-yl)-5-(1-piperidin-4-yl-1H-pyrazol-4-yl)-pyridin-2-ylamine], the concentration for half-maximal inhibition (IC50) against MET (human) and against RON (human) was 100 to 1000 nM throughout.
For the molecule `Nc1ncc(-c2cnn(C3CCNCC3)c2)cc1-c1nc2cccc(F)c2s1` [Example 270, 3-(7-Fluorobenzothiazol-2-yl)-5-(1-piperidin-4-yl-1H-pyrazol-4-yl)-pyridin-2-ylamine], the IC50 against MET (human) and on RON (human) was 100 to 1000 nM in each case.
In the case of `COc1ccc2sc(-c3cc(-c4cnn(C5CCNCC5)c4)cnc3N)nc2c1` [Example 271, 3-(5-Methoxybenzothiazol-2-yl)-5-(1-piperidin-4-yl-1H-pyrazol-4-yl)-pyridin-2-ylamine], the IC50 against MET (human) and at RON (human) was 100 to 1000 nM in each case.
For `Cc1ccc2sc(-c3cc(-c4cnn(C5CCNCC5)c4)cnc3N)nc2c1` [Example 272, 3-(5-Methylbenzothiazol-2-yl)-5-(1-piperidin-4-yl-1H-pyrazol-4-yl)-pyridin-2-ylamine], the concentration for half-maximal inhibition (IC50) against MET (human) and against RON (human) was 100 to 1000 nM each time.
Consider `Nc1ncc(-c2cnn(C3CCNCC3)c2)cc1-c1nc2cccc(Br)c2s1` [Example 273, 3-(7-Bromobenzothiazol-2-yl)-5-(1-piperidin-4-yl-1H-pyrazol-4-yl)-pyridin-2-ylamine], for which the IC50 at MET (human) and against RON (human) was not above 100 nM throughout.
As for `Nc1ncc(-c2cnn(C3CCNCC3)c2)cc1-c1nc2c(F)c(F)ccc2s1` [Example 274, 3-(4,5-Difluorobenzothiazol-2-yl)-5-(1-piperidin-4-yl-1H-pyrazol-4-yl)-pyridin-2-ylamine], the values for the IC50 against MET (human) and on RON (human) were not above 100 nM and 100 to 1000 nM, respectively.
